In article PMC12615753, “Glutathione as a taste modulator: molecular mechanisms of interaction with umami and sweet taste receptors” (Food Chemistry: Molecular Sciences, 2025):
pEC50: −log10 of the molar value. Entries after “also recorded” stand apart in the source; their conditions may differ.

Biological target: T1, hTAS1R1 H71S/rTAS1R3 (Homo sapiens, UniProt Q7RTX1, H71S)
T1 construct: UniProtKB number Q7RTX1–1); expressed in transfected cells; host or cells: HEK293T/17 (ATCC CRL-11268)
T1 sequence (Q7RTX1 21-841 H71S): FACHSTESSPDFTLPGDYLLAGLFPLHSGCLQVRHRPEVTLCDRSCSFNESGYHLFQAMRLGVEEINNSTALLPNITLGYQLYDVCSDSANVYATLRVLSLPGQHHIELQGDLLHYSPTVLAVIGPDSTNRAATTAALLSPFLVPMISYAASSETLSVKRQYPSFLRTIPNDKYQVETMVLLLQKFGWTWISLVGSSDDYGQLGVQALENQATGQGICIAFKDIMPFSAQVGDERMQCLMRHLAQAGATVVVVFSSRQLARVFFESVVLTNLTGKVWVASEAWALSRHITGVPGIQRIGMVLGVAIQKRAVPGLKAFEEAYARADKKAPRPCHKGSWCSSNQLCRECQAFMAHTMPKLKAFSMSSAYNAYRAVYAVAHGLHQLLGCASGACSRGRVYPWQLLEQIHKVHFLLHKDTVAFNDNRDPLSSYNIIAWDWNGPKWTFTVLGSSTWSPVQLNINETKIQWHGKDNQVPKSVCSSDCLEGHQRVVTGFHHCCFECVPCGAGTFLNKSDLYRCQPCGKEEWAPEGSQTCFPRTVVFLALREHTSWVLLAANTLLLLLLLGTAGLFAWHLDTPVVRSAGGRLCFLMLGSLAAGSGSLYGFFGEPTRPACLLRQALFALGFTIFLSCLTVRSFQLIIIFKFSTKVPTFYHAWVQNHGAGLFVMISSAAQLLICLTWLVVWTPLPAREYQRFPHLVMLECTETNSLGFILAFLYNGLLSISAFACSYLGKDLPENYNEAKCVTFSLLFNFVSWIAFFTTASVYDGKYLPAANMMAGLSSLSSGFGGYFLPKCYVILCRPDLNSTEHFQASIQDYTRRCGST
T1 sequence (Q923K1 21-858 partner): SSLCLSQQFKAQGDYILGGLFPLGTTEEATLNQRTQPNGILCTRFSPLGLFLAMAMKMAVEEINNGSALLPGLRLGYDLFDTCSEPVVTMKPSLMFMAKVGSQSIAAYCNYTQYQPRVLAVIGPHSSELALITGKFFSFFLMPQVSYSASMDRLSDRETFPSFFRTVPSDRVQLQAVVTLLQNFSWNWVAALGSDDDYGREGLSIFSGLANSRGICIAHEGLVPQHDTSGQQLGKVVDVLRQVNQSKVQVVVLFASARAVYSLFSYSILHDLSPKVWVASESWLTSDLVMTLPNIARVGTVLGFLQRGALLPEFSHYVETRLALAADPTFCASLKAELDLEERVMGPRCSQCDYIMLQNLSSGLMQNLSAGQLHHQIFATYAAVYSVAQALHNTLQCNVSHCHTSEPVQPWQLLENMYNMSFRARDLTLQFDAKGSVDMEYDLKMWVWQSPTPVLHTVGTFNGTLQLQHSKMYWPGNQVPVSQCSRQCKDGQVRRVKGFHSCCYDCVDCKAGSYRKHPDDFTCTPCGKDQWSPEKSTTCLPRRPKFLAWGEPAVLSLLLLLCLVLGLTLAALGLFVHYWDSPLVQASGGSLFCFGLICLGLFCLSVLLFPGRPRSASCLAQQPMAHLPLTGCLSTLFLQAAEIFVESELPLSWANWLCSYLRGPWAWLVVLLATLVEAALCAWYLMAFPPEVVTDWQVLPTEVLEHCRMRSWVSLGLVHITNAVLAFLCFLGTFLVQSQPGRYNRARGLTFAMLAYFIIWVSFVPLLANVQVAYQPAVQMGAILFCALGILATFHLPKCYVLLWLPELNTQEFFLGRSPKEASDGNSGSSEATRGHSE
Experiment: Calcium assay, hTAS1R1 mutant co-expressed with rTAS1R3
Type: cell-based, rat
Conditions: for response to the agonist alone, vs WT: H71S
Text: Chimeric Gα proteins, such as Gα16Gust44, Gα16Gi3 or Gα15i2, are widely used in the functional expression of TAS1R receptors ([Backes et al., 2015]; [Suess et al., 2015]; [Toda et al., 2021], [Toda et al., 2013], [Toda et al., 2018]; [Zhang et al., 2008]). Chimeric Gα15i2 (([Toda et al., 2013]), Supplementary data) was generated by replacing the last five residues of the C-terminal tail of rat Gα15i2 (EINLL) (UniProt number G3V6N8; https://www.uniprot.org/uniprot/) with the counterpart sequence from human GNAI2 (DCGLF) (UniProt number P04899-1) and cloning into the pcDNA3.1/Hygro vector (Invitrogen, Thermo Fisher Scientific, Illkirch, France) between the HindIII and NotI restriction sites, resulting in the plasmid pcDNA3.1-Gα15i2. Chimeric Gα16Gust44 construct have already been reported ([Raliou et al., 2011]). Briefly, Gα16Gust44 was generated by replacing the C-terminal of Gα16 with the C-terminal 44 residues of gustducin. As previously described, hTAS1R1 was amplified from human fungiform papillae cDNA and cloned and inserted into pcDNA3 (Invitrogen), generating pcDNA3-TAS1R1-WT (wild-type) ([Raliou et al., 2011]). […] The cDNA coding region of rTAS1R3 was synthesized with optimized-codon usage for human expression (Genewiz) and was cloned and inserted into the mammalian pcDNA4/myc-HisA (Invitrogen) expression vector between the EcoRI and NotI restriction sites, resulting in the plasmid pcDNA4-rTAS1R3. […] The sequence integrity of all the plasmid constructs was verified via automated DNA sequencing (Genewiz).
The hTAS1R1 mutants were co-expressed with the rTAS1R3 subunit in HEK293 cells. […] As a control, the functionality of the mutated receptors was checked after stimulation with S807 (Fig. S8), which interacts with TAS1R1-TMD ([Zhang et al., 2008]).

SMILES | response to the agonist alone, vs WT | pEC50
CCCC(CCC)NC(=O)c1ccc2c(c1)OCO2 [S807, N-(heptan-4-yl)benzo[d][1,3]dioxole-5-carboxamide, reference compound] | unaffected | 
N[C@@H](CCC(=O)N[C@@H](CS)C(=O)NCC(=O)O)C(=O)O [GSH, γ-L-glutamyl-L-cysteinyl-glycine] | fully abolished; also recorded: completely abolished | < 1.52
N[C@@H](CCC(=O)O)C(=O)O [L-Glu, L-glutamic acid, reference compound] | completely suppressed; also recorded: completely abolished | 
